Assay results taken from PMC3928794 (Chemistry & biodiversity, 2013).
Like-named read-outs stand apart in the source and are kept apart here.

Assays:
Type in all cases: cell-based
[1] = tested on: H522 lung cancer cell line; assay: Antiproliferative bioassay, H522 lung cancer cell line
[2] = tested on: A2780 human ovarian cancer cell line; assay: Antiproliferative bioassay, A2780 ovarian cancer cell line; conditions: for IC50: read-out: IC50 (μM) A2780, A2780 ovarian cancer cells, mean of three replicates
A2058 melanoma cell line = assay: Antiproliferative bioassay, A2058 melanoma cell line
[3] = read-out: IC50 (μM) H522, H522 lung cancer cells

IC50 [1, 3] [µM] | IC50 [2] [µM] | IC50 ([1]; Homo sapiens, NCI-H522, read-out: IC50 (μM) H522) [µM] | IC50 (A2058 melanoma cell line; Homo sapiens, A2058, read-out: IC50 (μM) A2058) [µM] | IC50 (A2058 melanoma cell line; read-out: IC50 (μM) A2058, A2058 melanoma cells) [µM] | Compound | inhibition of the proliferation of A2780 cells (in words) [2]
> 10 | 1.2 ± 0.3 |  |  |  | CC(=O)OC[C@H]1O[C@@H](O[C@H]2CC[C@]3(C)[C@H]4CC=C5[C@@H]6CC(C)(C)CC[C@]6(C(=O)O)CC[C@@]5(C)[C@]4(C)CC[C@H]3C2(C)C)[C@H](O)[C@@H](O[C@@H]2O[C@H](CO)[C@@H](O)[C@H](O)[C@H]2O)[C@@H]1O [Compound 3, oleanolic acid-3-O-β-D-glucopyranosyl-(1→3)-(6″-O-acetyl)-β-D-glucopyranoside] | selectively inhibit the proliferation of A2780 ovarian cancer cells
 |  | 0.009 | 0.004 |  | CC[C@]1(O)C[C@@H]2CN(CCc3c([nH]c4ccccc34)[C@@](C(=O)OC)(c3cc4c(cc3OC)N(C)[C@H]3[C@@](O)(C(=O)OC)[C@H](OC(C)=O)[C@]5(CC)C=CCN6CC[C@]43[C@@H]65)C2)C1 [Vinblastine, reference compound] | 
7.32 | 2.2 ± 0.2 |  |  | 7.63 | oleanolic acid-3-O-β-D-glucopyranosyl- (1→3)-β-D-glucopyranoside [Compound 1] | 
> 10 | 1.7 ± 0.1 |  |  |  | oleanolic acid-3-O-β-D-glucopyranosyl-(1→3)-(2″-O-acetyl)-β-D-glucopyranoside [Compound 2] | selectively inhibit the proliferation of A2780 ovarian cancer cells
